Values after ≈ are worked out from the molar mass of the structure shown.
Columns and labels:
Aspergillus fumigatus = assay: Antifungal activity against Aspergillus fumigatus ATCC 1022 assessed as growth inhibition after 72 hrs at 28 degC by serial dilution method; format: functional; details: for MIC: Aspergillus fumigatus, ATCC 1022, 72 h
Trichoderma viride = assay: Antifungal activity against Trichoderma viride IAM 5061 assessed as growth inhibition after 72 hrs at 28 degC by serial dilution method; format: functional; details: for MIC: Trichoderma viride, IAM 5061, 72 h
[1] = molecular target: Human immunodeficiency virus type 1 reverse transcriptase (Human immunodeficiency virus 1) (UniProt Q72547); assay: Inhibition of HIV1 reverse transcriptase assessed as residual enzyme activity by measuring reduction in [3H]dTTP incorporation into poly(rA)-oligo(dT) at 4 uM incubated for 15 mins by scintillation counting method relative to control
Aspergillus niger = assay: Antifungal activity against Aspergillus niger ATCC 6275 assessed as growth inhibition after 72 hrs at 28 degC by serial dilution method; format: functional; details: for MIC: Aspergillus niger, ATCC 6275, 72 h
Penicillium ochrochloron = assay: Antifungal activity against Penicillium ochrochloron ATCC 9112 assessed as growth inhibition after 72 hrs at 28 degC by serial dilution method; format: functional; details: for MIC: Penicillium ochrochloron, ATCC 9112, 72 h
Talaromyces funiculosus = assay: Antifungal activity against Penicillium funiculosum ATCC 36839 assessed as growth inhibition after 72 hrs at 28 degC by serial dilution method; format: functional; details: for MIC: Talaromyces funiculosus, ATCC 36839, 72 h
Listeria monocytogenes = assay: Antibacterial activity against Listeria monocytogenes NCTC 7973 assessed as growth inhibition after 24 hrs at 37 degC by iodonitrotetrazolium chloride staining based microdilution broth assay; format: functional; details: NCTC 7973, 24 h
Bacillus cereus = assay: Antibacterial activity against clinical isolates of Bacillus cereus assessed as growth inhibition after 24 hrs at 37 degC by iodonitrotetrazolium chloride staining based microdilution broth assay; format: functional
Escherichia coli = assay: Antibacterial activity against Escherichia coli ATCC 35210 assessed as growth inhibition after 24 hrs at 37 degC by iodonitrotetrazolium chloride staining based microdilution broth assay; format: functional; details: ATCC 35210, 24 h
Aspergillus ochraceus = assay: Antifungal activity against Aspergillus ochraceus ATCC 12066 assessed as growth inhibition after 72 hrs at 28 degC by serial dilution method; format: functional; details: for MIC: Aspergillus ochraceus, ATCC 12066, 72 h
Staphylococcus aureus = assay: Antibacterial activity against Staphylococcus aureus ATCC 6538 assessed as growth inhibition after 24 hrs at 37 degC by iodonitrotetrazolium chloride staining based microdilution broth assay; format: functional; details: ATCC 6538, 24 h
Aspergillus versicolor = assay: Antifungal activity against Aspergillus versicolor ATCC 11730 assessed as growth inhibition after 72 hrs at 28 degC by serial dilution method; format: functional; details: for MIC: Aspergillus versicolor, ATCC 11730, 72 h
Micrococcus flavus = assay: Antibacterial activity against Micrococcus flavus ATCC 10240 assessed as growth inhibition after 24 hrs at 37 degC by iodonitrotetrazolium chloride staining based microdilution broth assay; format: functional; details: ATCC 10240, 24 h
Enterobacter cloacae = assay: Antibacterial activity against human isolate of Enterobacter cloacae assessed as growth inhibition after 24 hrs at 37 degC by iodonitrotetrazolium chloride staining based microdilution broth assay; format: functional
Pseudomonas aeruginosa = assay: Antibacterial activity against Pseudomonas aeruginosa ATCC 27853 assessed as growth inhibition after 24 hrs at 37 degC by iodonitrotetrazolium chloride staining based microdilution broth assay; format: functional; details: ATCC 27853, 24 h
Candida albicans = assay: Antifungal activity against Candida albicans ATCC 10231 assessed as growth inhibition after 72 hrs at 28 degC by serial dilution method; format: functional; details: for MIC: Candida albicans, ATCC 10231, 72 h
Salmonella typhimurium = assay: Antibacterial activity against Salmonella typhimurium ATCC 13311 assessed as growth inhibition after 24 hrs at 37 degC by iodonitrotetrazolium chloride staining based microdilution broth assay; format: functional, Salmonella enterica subsp. enterica serovar Typhimurium; details: Salmonella enterica, ATCC 13311, 24 h

Structure (SMILES) | MIC (Aspergillus fumigatus) [µM] | MIC (Trichoderma viride) [µM] | MIC (Aspergillus niger) [µM] | MIC (Penicillium ochrochloron) [µM] | MIC (Talaromyces funiculosus) [µM] | MIC (Listeria monocytogenes) [µM] | MIC (Bacillus cereus) [µM] | MIC (Escherichia coli) [µM] | MIC (Aspergillus ochraceus) [µM] | MIC (Staphylococcus aureus) [µM] | MFC99.5 (Aspergillus fumigatus) [×10⁻² umol/ml] | MFC99.5 (Trichoderma viride) [×10⁻² umol/ml] | MFC99.5 (Aspergillus niger) [×10⁻² umol/ml] | MFC99.5 (Penicillium ochrochloron) [×10⁻² umol/ml] | MFC99.5 (Talaromyces funiculosus) [×10⁻² umol/ml] | MBC (Listeria monocytogenes) [µM] | MBC (Bacillus cereus) [µM] | MBC (Escherichia coli) [µM] | MFC99.5 (Aspergillus ochraceus) [×10⁻² umol/ml] | MBC (Staphylococcus aureus) [µM] | further results
COc1ccc(OC)c(C2SCC(=O)N2c2nc(C34CC5CC(CC(C5)C3)C4)cs2)c1 (stereo unspecified) | 219 (≈ 100 µg/mL) | 219 (≈ 100 µg/mL) | 219 (≈ 100 µg/mL) | 219 (≈ 100 µg/mL) | 219 (≈ 100 µg/mL) | 438 (≈ 200 µg/mL) | 219 (≈ 100 µg/mL) | 219 (≈ 100 µg/mL) | 110 (≈ 50 µg/mL) | 438 (≈ 200 µg/mL) | 32.85 | 21.9 | 87.6 | 43.8 | 43.8 | 657 (≈ 300 µg/mL) | 438 (≈ 200 µg/mL) | 438 (≈ 200 µg/mL) | 32.85 | 657 (≈ 300 µg/mL) | Activity [1]: 80.7%; MFC99.5 (Aspergillus versicolor): 32.85 ×10⁻² umol/ml; MIC (Aspergillus versicolor): 219 µM (≈ 100 µg/mL); MBC (Micrococcus flavus): 438 µM (≈ 200 µg/mL); MIC (Micrococcus flavus): 219 µM (≈ 100 µg/mL); MBC (Enterobacter cloacae): 438 µM (≈ 200 µg/mL); MIC (Enterobacter cloacae): 219 µM (≈ 100 µg/mL); MBC (Pseudomonas aeruginosa): 438 µM (≈ 200 µg/mL); MIC (Pseudomonas aeruginosa): 438 µM (≈ 200 µg/mL); MFC99.5 (Candida albicans): 109.5 ×10⁻² umol/ml; MIC (Candida albicans): 876 µM (≈ 400 µg/mL); MBC (Salmonella typhimurium): 438 µM (≈ 200 µg/mL); MIC (Salmonella typhimurium): 219 µM (≈ 100 µg/mL)
CC(=O)N1CCN(c2ccc(OCC3COC(Cn4ccnc4)(c4ccc(Cl)cc4Cl)O3)cc2)CC1 (stereo unspecified) [KETOCONAZOLE] | 380 (≈ 202 µg/mL) | 4750 (≈ 2520 µg/mL) | 380 (≈ 202 µg/mL) | 3800 (≈ 2020 µg/mL) | 380 (≈ 202 µg/mL) | – | – | – | 380 (≈ 202 µg/mL) | – | 95 | 570 | 95 | 380 | 95 | – | – | – | 95 | – | MFC99.5 (Aspergillus versicolor): 95 ×10⁻² umol/ml; MIC (Aspergillus versicolor): 380 µM (≈ 202 µg/mL); MFC99.5 (Candida albicans): 95 ×10⁻² umol/ml; MIC (Candida albicans): 380 µM (≈ 202 µg/mL)
O=C1CSC(c2ccc(Br)cc2)N1c1nc(C23CC4CC(CC(C4)C2)C3)cs1 (stereo unspecified) | 210 (≈ 99.9 µg/mL) | 105 (≈ 50 µg/mL) | 210 (≈ 99.9 µg/mL) | 210 (≈ 99.9 µg/mL) | 210 (≈ 99.9 µg/mL) | 420 (≈ 200 µg/mL) | 105 (≈ 49.9 µg/mL) | 210 (≈ 99.9 µg/mL) | 105 (≈ 50 µg/mL) | 420 (≈ 200 µg/mL) | 21.02 | 10.51 | 31.54 | 21.02 | 52.58 | 630 (≈ 300 µg/mL) | 210 (≈ 99.9 µg/mL) | 210 (≈ 99.9 µg/mL) | 42.04 | 420 (≈ 200 µg/mL) | Activity [1]: 59.9%; MFC99.5 (Aspergillus versicolor): 10.51 ×10⁻² umol/ml; MIC (Aspergillus versicolor): 105 µM (≈ 50 µg/mL); MBC (Micrococcus flavus): 420 µM (≈ 200 µg/mL); MIC (Micrococcus flavus): 210 µM (≈ 99.9 µg/mL); MBC (Enterobacter cloacae): 420 µM (≈ 200 µg/mL); MIC (Enterobacter cloacae): 20 µM (≈ 9.51 µg/mL); MBC (Pseudomonas aeruginosa): 630 µM (≈ 300 µg/mL); MIC (Pseudomonas aeruginosa): 420 µM (≈ 200 µg/mL); MFC99.5 (Candida albicans): 73.6 ×10⁻² umol/ml; MIC (Candida albicans): 526 µM (≈ 250 µg/mL); MBC (Salmonella typhimurium): 420 µM (≈ 200 µg/mL); MIC (Salmonella typhimurium): 210 µM (≈ 99.9 µg/mL)

Further lines, with some results ahead:

MIC (Aspergillus fumigatus) [µM] | MIC (Trichoderma viride) [µM] | MIC (Aspergillus niger) [µM] | MIC (Penicillium ochrochloron) [µM] | MIC (Talaromyces funiculosus) [µM] | MIC (Listeria monocytogenes) [µM] | MIC (Bacillus cereus) [µM] | MIC (Escherichia coli) [µM] | MIC (Aspergillus ochraceus) [µM] | MIC (Staphylococcus aureus) [µM] | Structure (SMILES) | MFC99.5 (Aspergillus fumigatus) [×10⁻² umol/ml] | MFC99.5 (Trichoderma viride) [×10⁻² umol/ml] | MFC99.5 (Aspergillus niger) [×10⁻² umol/ml] | MFC99.5 (Penicillium ochrochloron) [×10⁻² umol/ml] | MFC99.5 (Talaromyces funiculosus) [×10⁻² umol/ml] | MBC (Listeria monocytogenes) [µM] | MBC (Bacillus cereus) [µM] | MBC (Escherichia coli) [µM] | MFC99.5 (Aspergillus ochraceus) [×10⁻² umol/ml] | MBC (Staphylococcus aureus) [µM] | further results
11.3 (≈ 4.99 µg/mL) | 1.4 (≈ 0.618 µg/mL) | 3.5 (≈ 1.55 µg/mL) | 1.4 (≈ 0.618 µg/mL) | 0.7 (≈ 0.309 µg/mL) | 61.2 (≈ 27 µg/mL) | 16.2 (≈ 7.18 µg/mL) | 85 (≈ 37.5 µg/mL) | 1.4 (≈ 0.618 µg/mL) | 30.6 (≈ 13.5 µg/mL) | O=C1CSC(c2ccc([N+](=O)[O-])cc2)N1c1nc(C23CC4CC(CC(C4)C2)C3)cs1 (stereo unspecified) | 4.52 | 0.28 | 0.56 | 0.28 | 0.14 | 125 (≈ 55.2 µg/mL) | 30.6 (≈ 13.5 µg/mL) | 125 (≈ 55.2 µg/mL) | 0.28 | 61.2 (≈ 27 µg/mL) | Activity [1]: 99.3%; MFC99.5 (Aspergillus versicolor): 1.13 ×10⁻² umol/ml; MIC (Aspergillus versicolor): 5.6 µM (≈ 2.47 µg/mL); MBC (Micrococcus flavus): 125 µM (≈ 55.2 µg/mL); MIC (Micrococcus flavus): 61.2 µM (≈ 27 µg/mL); MBC (Enterobacter cloacae): 62.5 µM (≈ 27.6 µg/mL); MIC (Enterobacter cloacae): 30.6 µM (≈ 13.5 µg/mL); MBC (Pseudomonas aeruginosa): 125 µM (≈ 55.2 µg/mL); MIC (Pseudomonas aeruginosa): 30.6 µM (≈ 13.5 µg/mL); MFC99.5 (Candida albicans): 2.26 ×10⁻² umol/ml; MIC (Candida albicans): 11.3 µM (≈ 4.99 µg/mL); MBC (Salmonella typhimurium): 125 µM (≈ 55.2 µg/mL); MIC (Salmonella typhimurium): 30.6 µM (≈ 13.5 µg/mL)
– | – | – | – | – | 372 (≈ 130 µg/mL) | 248 (≈ 86.7 µg/mL) | 372 (≈ 130 µg/mL) | – | 248 (≈ 86.7 µg/mL) | CC1(C)S[C@@H]2[C@H](NC(=O)[C@H](N)c3ccccc3)C(=O)N2[C@H]1C(=O)O [AMPICILLIN] | – | – | – | – | – | 744 (≈ 260 µg/mL) | 372 (≈ 130 µg/mL) | 492 (≈ 172 µg/mL) | – | 378 (≈ 132 µg/mL) | MBC (Micrococcus flavus): 372 µM (≈ 130 µg/mL); MIC (Micrococcus flavus): 248 µM (≈ 86.7 µg/mL); MBC (Enterobacter cloacae): 372 µM (≈ 130 µg/mL); MIC (Enterobacter cloacae): 248 µM (≈ 86.6 µg/mL); MBC (Pseudomonas aeruginosa): 1240 µM (≈ 433 µg/mL); MIC (Pseudomonas aeruginosa): 744 µM (≈ 260 µg/mL); MBC (Salmonella typhimurium): 492 µM (≈ 172 µg/mL); MIC (Salmonella typhimurium): 248 µM (≈ 86.7 µg/mL)

— ChEMBL document CHEMBL3734713, “4-Thiazolidinone derivatives as potent antimicrobial agents: microwave-assisted synthesis, biological evaluation and docking studies” (2015)
